Measurements from patent publication US8722578B2, “Spiroheterocyclic pyrrolidinedione herbicidal compositions” (Syngenta Participations AG, priority 2008, dated 2014).

Experiments:
[1] = test system: Alopecurus myosuroides (ALOMY); assay: Example A pre-emergence herbicidal activity, glasshouse pot test; assay type: in vivo; settings: 480 h, rate 250 g/ha, evaluated 20 days after spraying, read-out: ALOMY pre-emergence activity (100=total damage to plant; 0=no damage to plant)
Procedure: (§1) Monocotyledonous and dicotyledonous test plants are sown in standard soil in pots. After cultivation for one day (pre-emergence) or after 10 days cultivation (post-emergence) under controlled conditions in a glasshouse, the plants are sprayed with an aqueous spray solution derived from the formulation of the technical active ingredient in 0.6 ml acetone and 45 ml formulation solution containing 10.6% Emulsogen EL (Registry number 61791-12-6), 42.2% N-methylpyrrolidone, 42.2% dipropylene glycol monomethyl ether (Registry number 34590-94-8) and 0.2% X-77 (Registry number 11097-66-8). The test plants are then grown in a greenhouse under optimum conditions until, 15 days later for post-emergence and 20 days for pre-emergence, the test is evaluated (100=total damage to plant; 0=no damage to plant). Test Plants: Alopecurus myosuroides (ALOMY), Avena fatua (AVEFA), Lolium perenne (LOLPE), Setaria faberi (SETFA), Digitaria sanguinalis (DIGSA), Echinochloa crus-galli (ECHCG) Pre-Emergence Activity

[2] = test system: Avena fatua (AVEFA); assay: as above; assay type: in vivo; settings: 480 h, rate 250 g/ha, evaluated 20 days after spraying, read-out: AVEFA pre-emergence activity (100=total damage to plant; 0=no damage to plant)
Procedure: as §1

[3] = test system: Digitaria sanguinalis (DIGSA); assay: as above; assay type: in vivo; settings: 480 h, rate 250 g/ha, evaluated 20 days after spraying, read-out: DIGSA pre-emergence activity (100=total damage to plant; 0=no damage to plant)
Procedure: as §1

[4] = test system: Echinochloa crus-galli (ECHCG); assay: as above; assay type: in vivo; settings: 480 h, rate 250 g/ha, evaluated 20 days after spraying, read-out: ECHOG pre-emergence activity (100=total damage to plant; 0=no damage to plant)
Procedure: as §1

[5] = test system: Lolium perenne (LOLPE); assay: as above; assay type: in vivo; settings: 480 h, rate 250 g/ha, evaluated 20 days after spraying, read-out: LOLPE pre-emergence activity (100=total damage to plant; 0=no damage to plant)
Procedure: as §1

[6] = test system: Setaria faberi (SETFA); assay: as above; assay type: in vivo; settings: 480 h, rate 250 g/ha, evaluated 20 days after spraying, read-out: SETFA pre-emergence activity (100=total damage to plant; 0=no damage to plant)
Procedure: as §1

[7] = test system: Alopecurus myosuroides (ALOMY); assay: Example A post-emergence herbicidal activity, glasshouse pot test; assay type: in vivo; settings: 360 h, rate 125 g/ha, evaluated 15 days after spraying, read-out: ALOMY post-emergence activity (100=total damage to plant; 0=no damage to plant)
Procedure: as §1, with “Post-Emergence” for “Pre-Emergence”

[8] = test system: Avena fatua (AVEFA); assay: as above; assay type: in vivo; settings: 360 h, rate 125 g/ha, evaluated 15 days after spraying, read-out: AVEFA post-emergence activity (100=total damage to plant; 0=no damage to plant)
Procedure: as §1, with “Post-Emergence” for “Pre-Emergence”

[9] = test system: Digitaria sanguinalis (DIGSA); assay: as above; assay type: in vivo; settings: 360 h, rate 125 g/ha, evaluated 15 days after spraying, read-out: DIGSA post-emergence activity (100=total damage to plant; 0=no damage to plant)
Procedure: as §1, with “Post-Emergence” for “Pre-Emergence”

[10] = test system: Echinochloa crus-galli (ECHCG); assay: as above; assay type: in vivo; settings: 360 h, rate 125 g/ha, evaluated 15 days after spraying, read-out: ECHOG post-emergence activity (100=total damage to plant; 0=no damage to plant)
Procedure: as §1, with “Post-Emergence” for “Pre-Emergence”

[11] = test system: Lolium perenne (LOLPE); assay: as above; assay type: in vivo; settings: 360 h, rate 125 g/ha, evaluated 15 days after spraying, read-out: LOLPE post-emergence activity (100=total damage to plant; 0=no damage to plant)
Procedure: as §1, with “Post-Emergence” for “Pre-Emergence”

[12] = test system: Setaria faberi (SETFA); assay: as above; assay type: in vivo; settings: 360 h, rate 125 g/ha, evaluated 15 days after spraying, read-out: SETFA post-emergence activity (100=total damage to plant; 0=no damage to plant)
Procedure: as §1, with “Post-Emergence” for “Pre-Emergence”

[13] = test system: Alopecurus myosuroides (ALOMY); assay: Example B pre-emergence herbicidal activity, glasshouse pot test; assay type: in vivo; settings: 312 h, first table (headed Post-Emergence, taken as pre-emergence), rate 250 g/ha, evaluated after 13 days, read-out: ALOMY activity (100=total damage to plant; 0=no damage to plant)
Method in brief: (§2)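 Glasshouse pots, standard soil; spray at day 1 (pre-em) or day 8 (post-em); acetone/water 50:50 + 0.5% Tween 20; 24/16° C, 14 h light, 65% RH, watered twice daily; visual damage score at 13 d, 0 = none, 100 = total.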

[14] = test system: Avena fatua (AVEFA); assay: as above; assay type: in vivo; settings: 312 h, first table (headed Post-Emergence, taken as pre-emergence), rate 250 g/ha, evaluated after 13 days, read-out: AVEFA activity (100=total damage to plant; 0=no damage to plant)
Method in brief: as §2

[15] = test system: Echinochloa crus-galli (ECHCG); assay: as above; assay type: in vivo; settings: 312 h, first table (headed Post-Emergence, taken as pre-emergence), rate 250 g/ha, evaluated after 13 days, read-out: ECHCG activity (100=total damage to plant; 0=no damage to plant)
Method in brief: as §2

[16] = test system: Setaria faberi (SETFA); assay: as above; assay type: in vivo; settings: 312 h, first table (headed Post-Emergence, taken as pre-emergence), rate 250 g/ha, evaluated after 13 days, read-out: SETFA activity (100=total damage to plant; 0=no damage to plant)
Method in brief: as §2

[17] = test system: Alopecurus myosuroides (ALOMY); assay: Example B post-emergence herbicidal activity, glasshouse pot test; assay type: in vivo; settings: 312 h, rate 250 g/ha, evaluated after 13 days, read-out: ALOMY post-emergence activity (100=total damage to plant; 0=no damage to plant)
Method in brief: as §2

[18] = test system: Avena fatua (AVEFA); assay: as above; assay type: in vivo; settings: 312 h, rate 250 g/ha, evaluated after 13 days, read-out: AVEFA post-emergence activity (100=total damage to plant; 0=no damage to plant)
Method in brief: as §2

[19] = test system: Echinochloa crus-galli (ECHCG); assay: as above; assay type: in vivo; settings: 312 h, rate 250 g/ha, evaluated after 13 days, read-out: ECHCG post-emergence activity (100=total damage to plant; 0=no damage to plant)
Method in brief: as §2

[20] = test system: Setaria faberi (SETFA); assay: as above; assay type: in vivo; settings: 312 h, rate 250 g/ha, evaluated after 13 days, read-out: SETFA post-emergence activity (100=total damage to plant; 0=no damage to plant)
Method in brief: as §2

For `CON1CCC2(CC1)NC(=O)C(c1ccc(Br)cc1Cl)=C2OC(=O)C(C)(C)C` [Compound P67], the pest or weed control at 250 g/ha [1] was 0%, the pest or weed control at 250 g/ha [2] was 40% and the pest or weed control at 250 g/ha [3] was 20%. The pest or weed control at 250 g/ha [4] was 60%, the pest or weed control at 250 g/ha [5] was 10% and the pest or weed control at 250 g/ha [6] was 50%. For the same compound, the pest or weed control at 125 g/ha [7] was 40%, the pest or weed control at 125 g/ha [8] was 60% and the pest or weed control at 125 g/ha [9] was 80%. It also gave a pest or weed control at 125 g/ha [10] of 70%, a pest or weed control at 125 g/ha [11] of 40% and a pest or weed control at 125 g/ha [12] of 70%. For the same compound, the pest or weed control at 250 g/ha [13] was 80%, the pest or weed control at 250 g/ha [14] was 60% and the pest or weed control at 250 g/ha [15] was 70%. It also gave a pest or weed control at 250 g/ha [16] of 100%, a pest or weed control at 250 g/ha [17] of 100% and a pest or weed control at 250 g/ha [18] of 60%. The pest or weed control at 250 g/ha [19] was 100%, the pest or weed control at 250 g/ha [20] was 90% and the melting point was 223 to 225 °C.
